Measured values reported in ChEMBL document CHEMBL1147910, “Novel C-5 aminomethyl pyrrolotriazine dual inhibitors of EGFR and HER2 protein tyrosine kinases” (Bioorg Med Chem Lett, 2007).

Legend:
[1] = Metabolic stability in mouse liver microsomes at 3 uM in presence of NADPH after 10 min; assay type: ADME, Microsome
[2] = Drug level in BALB/c mouse plasma at 50 mg/kg, po after 4 hrs; assay type: ADME, organism-based; design: dose 50 mg/kg, route oral
[3] = target: Receptor tyrosine-protein kinase erbB-2 (Homo sapiens, UniProt P04626); experiment: Inhibition of human HER2
Chain of Receptor tyrosine-protein kinase erbB-2 (P04626 whole entry): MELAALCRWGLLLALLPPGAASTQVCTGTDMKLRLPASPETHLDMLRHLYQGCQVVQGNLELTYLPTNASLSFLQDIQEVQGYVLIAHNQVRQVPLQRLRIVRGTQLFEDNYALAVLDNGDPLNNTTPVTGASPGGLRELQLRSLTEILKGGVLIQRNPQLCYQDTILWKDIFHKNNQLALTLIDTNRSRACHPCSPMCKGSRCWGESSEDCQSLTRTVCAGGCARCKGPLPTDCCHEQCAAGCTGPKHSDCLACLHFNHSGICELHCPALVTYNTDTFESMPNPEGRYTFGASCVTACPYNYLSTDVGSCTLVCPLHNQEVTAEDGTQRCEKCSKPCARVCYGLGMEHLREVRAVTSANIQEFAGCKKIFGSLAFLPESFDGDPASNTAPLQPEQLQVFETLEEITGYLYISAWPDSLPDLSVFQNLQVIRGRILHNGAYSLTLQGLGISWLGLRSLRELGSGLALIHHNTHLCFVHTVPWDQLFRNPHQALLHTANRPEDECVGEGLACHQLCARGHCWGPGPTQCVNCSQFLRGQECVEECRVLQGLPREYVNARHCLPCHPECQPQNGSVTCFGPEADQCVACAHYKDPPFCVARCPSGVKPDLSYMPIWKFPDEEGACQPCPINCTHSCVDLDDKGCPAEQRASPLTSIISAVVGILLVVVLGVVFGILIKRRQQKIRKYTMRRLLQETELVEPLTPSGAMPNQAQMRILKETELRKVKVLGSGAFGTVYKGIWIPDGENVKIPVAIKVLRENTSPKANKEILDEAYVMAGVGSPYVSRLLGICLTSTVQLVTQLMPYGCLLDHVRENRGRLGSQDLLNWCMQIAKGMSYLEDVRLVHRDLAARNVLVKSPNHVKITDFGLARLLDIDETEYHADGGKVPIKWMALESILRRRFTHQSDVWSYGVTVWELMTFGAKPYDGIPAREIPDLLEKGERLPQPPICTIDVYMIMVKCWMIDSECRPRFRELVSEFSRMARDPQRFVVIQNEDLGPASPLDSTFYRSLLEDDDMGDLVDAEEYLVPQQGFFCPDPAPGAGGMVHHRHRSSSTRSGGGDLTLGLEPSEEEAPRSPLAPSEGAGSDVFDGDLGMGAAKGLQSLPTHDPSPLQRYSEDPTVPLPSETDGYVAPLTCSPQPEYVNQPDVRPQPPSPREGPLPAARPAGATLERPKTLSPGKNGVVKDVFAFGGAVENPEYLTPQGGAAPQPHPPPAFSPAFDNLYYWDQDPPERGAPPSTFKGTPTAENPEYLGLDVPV

NCI-N87 [4] = experiment: Antiproliferative activity against human N87 cells; assay type: functional, cell-based
[5] = target: Epidermal growth factor receptor (Homo sapiens, UniProt P00533)
Chain of Epidermal growth factor receptor (P00533 whole entry): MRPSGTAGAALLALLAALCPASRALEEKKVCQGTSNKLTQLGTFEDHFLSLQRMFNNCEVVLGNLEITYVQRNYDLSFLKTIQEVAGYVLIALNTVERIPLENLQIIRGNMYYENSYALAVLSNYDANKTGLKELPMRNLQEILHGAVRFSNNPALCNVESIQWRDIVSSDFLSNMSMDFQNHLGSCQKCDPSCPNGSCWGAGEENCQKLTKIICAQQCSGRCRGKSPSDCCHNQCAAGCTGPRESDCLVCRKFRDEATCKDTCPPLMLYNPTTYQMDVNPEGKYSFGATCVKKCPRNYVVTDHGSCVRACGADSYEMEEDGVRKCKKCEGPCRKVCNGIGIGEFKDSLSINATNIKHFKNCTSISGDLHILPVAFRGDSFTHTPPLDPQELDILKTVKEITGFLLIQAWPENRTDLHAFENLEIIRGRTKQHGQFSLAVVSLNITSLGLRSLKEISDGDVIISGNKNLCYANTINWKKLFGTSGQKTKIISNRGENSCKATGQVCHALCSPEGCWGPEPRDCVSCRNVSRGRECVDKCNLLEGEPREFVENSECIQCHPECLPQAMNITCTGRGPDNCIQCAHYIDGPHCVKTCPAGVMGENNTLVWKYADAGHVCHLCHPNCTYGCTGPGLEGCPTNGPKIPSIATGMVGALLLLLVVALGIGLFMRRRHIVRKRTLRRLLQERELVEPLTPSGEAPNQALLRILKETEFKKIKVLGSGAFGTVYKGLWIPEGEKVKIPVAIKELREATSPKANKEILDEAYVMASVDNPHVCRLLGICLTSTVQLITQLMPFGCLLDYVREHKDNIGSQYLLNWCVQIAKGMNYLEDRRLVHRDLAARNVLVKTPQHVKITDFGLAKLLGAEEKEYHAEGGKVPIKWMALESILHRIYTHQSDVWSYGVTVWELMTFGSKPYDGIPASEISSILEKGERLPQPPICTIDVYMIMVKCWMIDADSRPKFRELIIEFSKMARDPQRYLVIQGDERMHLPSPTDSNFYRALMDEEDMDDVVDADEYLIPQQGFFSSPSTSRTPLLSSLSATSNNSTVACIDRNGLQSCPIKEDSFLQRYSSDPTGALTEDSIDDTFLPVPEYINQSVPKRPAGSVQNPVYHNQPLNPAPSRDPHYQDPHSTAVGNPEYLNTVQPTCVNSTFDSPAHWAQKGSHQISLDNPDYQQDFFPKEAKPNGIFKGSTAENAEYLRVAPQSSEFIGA

HT-29 = experiment: Antiproliferative activity against human HT29 cells
A2780 = experiment: Antiproliferative activity against human A2780 cells; assay type: functional, cell-based
[6] = Cmax in BALB/c mouse at 90 mg/kg, po; assay type: ADME, organism-based; design: dose 90 mg/kg, route oral; details: in vivo
[7] = Tmax in BALB/c mouse at 90 mg/kg, po; assay type: ADME, organism-based; design: dose 90 mg/kg, route oral; details: in vivo
[8] = AUC in BALB/c mouse at 90 mg/kg, po; assay type: ADME, organism-based; design: dose 90 mg/kg, route oral; details: plasma
[9] = Half life in BALB/c mouse at 10 mg/kg, iv; assay type: ADME, organism-based; design: dose 10 mg/kg, route intravenous; details: in vivo
[10] = Mean residence time in BALB/c mouse at 10 mg/kg, iv; assay type: ADME, organism-based; design: dose 10 mg/kg, route intravenous; details: in vivo
[11] = Plasma clearance in BALB/c mouse at 10 mg/kg, iv; assay type: ADME, organism-based; design: dose 10 mg/kg, route intravenous
[12] = Volume of distribution at steady state in BALB/c mouse at 10 mg/kg, iv; assay type: ADME, organism-based; design: dose 10 mg/kg, route intravenous; details: in vivo, read-out: Vss
[13] = Oral bioavailability in BALB/c mouse at 90 mg/kg, po; assay type: ADME, organism-based; details: in vivo
Plasma = experiment: Fraction unbound ligand in BALB/c mouse plasma; assay type: ADME, cell-free
[14] = Aqueous solubility at pH 3.9; assay type: physicochemical; details: buffer
[15] = Aqueous solubility in phosphate buffer at pH 7.5; assay type: physicochemical
NCI-N87 [16] = experiment: Antitumor activity against human N87 cells xenografted in athymic mouse at 90 mg/kg, po twice daily after 14 days; details: 336 h, read-out: TGI
[17] = Antitumor activity against human GEO cells xenografted in athymic mouse at 90 mg/kg, po twice daily after 14 days; details: 336 h, read-out: TGI
[18] = Toxicity in human N87 cells xenografted athymic mouse; assay type: organism-based, NCI-N87; details: in vivo
[19] = Mortality in human N87 cells xenografted athymic mouse at 180 mg/kg, po; assay type: organism-based, NCI-N87; design: dose 180 mg/kg, route oral; details: in vivo, read-out: Activity
NCI-N87 [20] = experiment: animal or person; details: Mus musculus, NCI-N87, po, 336 h, read-out: TGI
Description: (§1) Antitumor activity against human N87 cells xenografted in athymic mouse at 135 mg/kg, po twice daily after 14 days

NCI-N87 [21] = experiment: animal or person; details: Mus musculus, NCI-N87, po, 336 h, read-out: TGI; remark: listed apart in the source
Description: Antitumor activity against human N87 cells xenografted in athymic mouse at 180 mg/kg, po twice daily after 14 days

NCI-N87 [22] = experiment: animal or person; details: Mus musculus, NCI-N87, po, 336 h, read-out: TGI; remark: listed apart in the source
Description: as §1

Compound	metabolic rate [1]	concentration at 4 h [2]	IC50 [3]	IC50 (NCI-N87 [4])	IC50 [5]	IC50 (HT-29)	other results
Fc1cccc(Cn2ncc3cc(Nc4ncnn5ccc(CN6CCNCC6)c45)ccc32)c1	0 nmol/min/mg	6300 nM	81 nM	730 nM	90 nM		
OCCNCc1ccn2ncnc(Nc3ccc4c(cnn4Cc4cccc(F)c4)c3)c12			47 nM	1950 nM	45 nM		
O=C1CNCCN(Cc2ccn3ncnc(Nc4ccc5c(cnn5Cc5cccc(F)c5)c4)c23)C1			39 nM	650 nM	780 nM	> 10 µM	
COC1CNCCN(Cc2ccn3ncnc(Nc4ccc5c(cnn5Cc5cccc(F)c5)c4)c23)C1 (configuration not stated)			170 nM	3700 nM	190 nM		IC50 (A2780): > 5 µM
OC1CCN(Cc2ccn3ncnc(Nc4ccc5c(cnn5Cc5cccc(F)c5)c4)c23)CC1	0.29 nmol/min/mg	250 nM	63 nM	140 nM	68 nM		
Cc1ccn2ncnc(Nc3ccc4c(cnn4Cc4cccc(F)c4)c3)c12	0.14 nmol/min/mg	4100 nM				> 10 µM	
O[C@@H]1CNCCN(Cc2ccn3ncnc(Nc4ccc5c(cnn5Cc5cccc(F)c5)c4)c23)C1	0.12 nmol/min/mg	880 nM	76 nM	950 nM	200 nM	> 10 µM	
Fc1cccc(Cn2ncc3cc(Nc4ncnn5ccc(CN6CCCC6)c45)ccc32)c1			360 nM		500 nM		
CN1CCN(Cc2ccn3ncnc(Nc4ccc5c(cnn5Cc5cccc(F)c5)c4)c23)CC1		480 nM	120 nM	490 nM	170 nM		
CN(CCO)Cc1ccn2ncnc(Nc3ccc4c(cnn4Cc4cccc(F)c4)c3)c12				1200 nM			
O[C@H]1CNCCN(Cc2ccn3ncnc(Nc4ccc5c(cnn5Cc5cccc(F)c5)c4)c23)C1	0.12 nmol/min/mg	1510 nM	16 nM	160 nM	26 nM	> 10 µM	
CS(=O)(=O)N1CCCN(Cc2ccn3ncnc(Nc4ccc5c(cnn5Cc5cccc(F)c5)c4)c23)CC1			120 nM	330 nM	210 nM	> 10 µM	
COC(=O)C1CCN(Cc2ccn3ncnc(Nc4ccc5c(cnn5Cc5cccc(F)c5)c4)c23)CC1		27 nM	> 1000 nM	> 5000 nM	1000 nM	> 10 µM	
CN1CCCN(Cc2ccn3ncnc(Nc4ccc5c(cnn5Cc5cccc(F)c5)c4)c23)CC1	0.21 nmol/min/mg	93 nM	120 nM	620 nM	130 nM	> 7.9 µM	
CC1CNCCN(Cc2ccn3ncnc(Nc4ccc5c(cnn5Cc5cccc(F)c5)c4)c23)C1 (configuration not stated)	0 nmol/min/mg		74 nM	680 nM	130 nM		IC50 (A2780): > 2.1 µM
CC(=O)N1CCN(Cc2ccn3ncnc(Nc4ccc5c(cnn5Cc5cccc(F)c5)c4)c23)CC1		4100 nM	610 nM		710 nM		
O=C1CN(Cc2ccn3ncnc(Nc4ccc5c(cnn5Cc5cccc(F)c5)c4)c23)CCN1			200 nM	520 nM	350 nM	> 10 µM	
O=C1CCN(Cc2ccn3ncnc(Nc4ccc5c(cnn5Cc5cccc(F)c5)c4)c23)CCN1	0.27 nmol/min/mg	44 nM	750 nM	200 nM	240 nM	> 10 µM	
Fc1cccc(Cn2ncc3cc(Nc4ncnn5ccc(CN6CCCNCC6)c45)ccc32)c1	0.05 nmol/min/mg	1300 nM	27 nM		33 nM	> 3.6 µM	Cmax [6]: 7.95 µM; Tmax [7]: 3 h; AUC [8]: 48.9 µM·h; half-life [9]: 222 min; MRT [10]: 4 h; clearance [11]: 39 mL/min/kg; Vd [12]: 9.5 L/kg; bioavailability [13]: 77%; PB (Plasma): 98.4%; Solubility [14]: 9.7 mg/kg; Solubility [15]: 0.012 mg/kg; inhibition in vivo at 90 mg/kg (NCI-N87 [16]): 97%; inhibition in vivo at 90 mg/kg [17]: 90%; MTD [18]: 180 mg/kg; mortality [19]: 12%; inhibition in vivo at 135 mg/kg (NCI-N87 [20]): 111%; inhibition in vivo at 180 mg/kg (NCI-N87 [21]): 121%; inhibition in vivo at 135 mg/kg (NCI-N87 [22]): 78%
NC(=O)C1CCN(Cc2ccn3ncnc(Nc4ccc5c(cnn5Cc5cccc(F)c5)c4)c23)CC1			310 nM	400 nM	140 nM		
O=C(O)C1CCN(Cc2ccn3ncnc(Nc4ccc5c(cnn5Cc5cccc(F)c5)c4)c23)CC1	0.23 nmol/min/mg	600 nM	110 nM	> 5000 nM		> 10 µM	
